# Experimental data reported in patent publication US8716292B2, “Riminophenazines with 2-(heteroaryl)amino substituents and their anti-microbial activity” (priority 2010, dated 2014).
# System: Mycobacterium tuberculosis H37Rv strains
# Experiment: In vitro assay for antimicrobial susceptibility (microplate Alamar blue MIC)
# Format: cell-based
# Settings: Mycobacterium tuberculosis, H37RV, in vitro, Mycobacterium tuberculosis H37Rv strains; read-out: MIC (μg/mL) against H37Rv
row,SMILES,MIC
1,"Fc1ccc(-n2c3c/c(=N\CCN4CCOCC4)c(Nc4cccnc4)cc-3nc3ccccc32)cc1 [TBI-680, 5-(4-Fluorophenyl)-3-(2-morpholinoethyl)imino-2-(3-pyridyl)amino-3,5-dihydrophenazine]",0.5 µg/mL
2,"Fc1ccc(-n2c3c/c(=N\C4CCOCC4)c(Nc4cccnc4)cc-3nc3ccccc32)cc1 [TBI-681, 5-(4-Fluorophenyl)-3-(4-tetrahydropyranyl)imino-2-(3-pyridyl)amino-3,5-dihydrophenazine]",0.06 µg/mL
3,CN1CCC(/N=c2\cc3n(-c4ccc(F)cc4)c4ccccc4nc-3cc2Nc2cccnc2)CC1 [TBI-682],0.25 µg/mL
4,"CC(C)CN1CCC(/N=c2\cc3n(-c4ccc(F)cc4)c4ccccc4nc-3cc2Nc2cccnc2)CC1 [TBI-683, 5-(4-Fluorophenyl)-3-(N-isobutyl-4-piperidyl)imino-2-(3-pyridyl)amino-3,5-dihydrophenazine]",0.125 µg/mL
5,"Fc1ccc(-n2c3c/c(=N\C4CCN(C5CCCC5)CC4)c(Nc4cccnc4)cc-3nc3ccccc32)cc1 [TBI-684, 5-(4-Fluorophenyl)-3-(N-cyclopentyl-4-piperidyl)imino-2-(3-pyridyl)amino-3,5-dihydrophenazine]",0.5 µg/mL
6,"COC1CCC(/N=c2\cc3n(-c4ccc(F)cc4)c4ccccc4nc-3cc2Nc2cccnc2)CC1 (centres unmarked) [TBI-685, 5-(4-Fluorophenyl)-3-(4-methoxycyclohexyl)imino-2-(3-pyridyl)amino-3,5-dihydrophenazine]",0.125 µg/mL
7,"FC(F)(F)c1ccc(-n2c3c/c(=N\C4CCOCC4)c(Nc4cccnc4)cc-3nc3ccccc32)cc1 [TBI-686, 5-(4-Trifluoromethylphenyl)-3-(4-tetrahydropyranyl)imino-2-(3-pyridyl)amino-3,5-dihydrophenazine]",0.125 µg/mL
8,"CC(C)CN1CCC(/N=c2\cc3n(-c4ccc(C(F)(F)F)cc4)c4ccccc4nc-3cc2Nc2cccnc2)CC1 [TBI-687, 5-(4-Trifluoromethylphenyl)-3-(N-isobutyl-4-piperidyl)imino-2-(3-pyridyl)amino-3,5-dihydrophenazine]",0.06 µg/mL
9,"CN1CCC(/N=c2\cc3n(-c4ccc(C(F)(F)F)cc4)c4ccccc4nc-3cc2Nc2cccnc2)CC1 [TBI-689, 5-(4-Trifluoromethylphenyl)-3-(N-methyl-4-piperidyl)imino-2-(3-pyridyl)amino-3,5-dihydrophenazine]",0.125 µg/mL
10,"FC(F)(F)c1ccc(-n2c3c/c(=N\CCN4CCOCC4)c(Nc4cccnc4)cc-3nc3ccccc32)cc1 [TBI-690, 5-(4-Trifluoromethylphenyl)-3-(2-morpholinoethyl)imino-2-(3-pyridyl)amino-3,5-dihydrophenazine]",0.125 µg/mL
11,"FC(F)(F)c1ccc(-n2c3c/c(=N\C4CCN(C5CCCC5)CC4)c(Nc4cccnc4)cc-3nc3ccccc32)cc1 [TBI-691, 5-(4-Trifluoromethylphenyl)-3-(N-cyclopentyl-4-piperidyl)imino-2-(3-pyridyl)amino-3,5-dihydrophenazine]",0.06 µg/mL
12,"Cc1ccc(Nc2cc3nc4ccccc4n(-c4ccc(F)cc4)c-3c/c2=N\C(C)C)cn1 [TBI-692, 5-(4-Fluorophenyl)-3-(1-methylethyl)imino-2-(6-methyl-3-pyridyl)amino-3,5-dihydrophenazine]",0.06 µg/mL
13,"Cc1ncccc1Nc1cc2nc3ccccc3n(-c3ccc(F)cc3)c-2c/c1=N\C(C)C [TBI-693, 5-(4-Fluorophenyl)-3-(1-methylethyl)imino-2-(2-methyl-3-pyridyl)amino-3,5-dihydrophenazine]",0.03 µg/mL
14,"COC1CCC(/N=c2\cc3n(-c4ccc(C(F)(F)F)cc4)c4ccccc4nc-3cc2Nc2ccc(C)nc2)CC1 (centres unmarked) [TBI-695, 5-(4-Trifluoromethylphenyl)-3-(4-methoxycyclohexyl)imino-2-(6-methyl-3-pyridyl)amino-3,5-dihydrophenazine]",0.016 µg/mL
15,"Cc1ccc(Nc2cc3nc4ccccc4n(-c4ccc(C(F)(F)F)cc4)c-3c/c2=N\C2CCOCC2)cn1 [TBI-696, 5-(4-Trifluoromethylphenyl)-3-(4-tetrahydropyranyl)imino-2-(6-methyl-3-pyridyl)amino-3,5-dihydrophenazine]",0.032 µg/mL
16,"Cc1ccc(Nc2cc3nc4ccccc4n(-c4ccc(C(F)(F)F)cc4)c-3c/c2=N\C2CCN(C)CC2)cn1 [TBI-697, 5-(4-Trifluoromethylphenyl)-3-(N-methyl-4-piperidyl)imino-2-(6-methyl-3-pyridyl)amino-3,5-dihydrophenazine]",0.053 µg/mL
17,"Cc1ccc(Nc2cc3nc4ccccc4n(-c4ccc(C(F)(F)F)cc4)c-3c/c2=N\CCN2CCOCC2)cn1 [TBI-698, 5-(4-Trifluoromethylphenyl)-3-(2-morpholinoethyl)imino-2-(6-meth-3-pyridyl)amino-3,5-dihydrophenazine]",0.108 µg/mL
18,"COc1ncccc1Nc1cc2nc3ccccc3n(-c3ccc(C(F)(F)F)cc3)c-2c/c1=N\C(C)C [TBI-699, 5-(4-Trifluoromethylphenyl)-3-(1-methylethyl)imino-2-(2-methoxy-3-pyridyl)amino-3,5-dihydrophenazine]",0.029 µg/mL
19,"COc1ncccc1Nc1cc2nc3ccccc3n(-c3ccc(C(F)(F)F)cc3)c-2c/c1=N\C1CCC(OC)CC1 (centres unmarked) [TBI-700, 5-(4-Trifluoromethylphenyl)-3-(4-methoxycyclohexyl)imino-2-(2-methoxy-3-pyridyl)amino-3,5-dihydrophenazine]",0.016 µg/mL
20,"COc1ncccc1Nc1cc2nc3ccccc3n(-c3ccc(C(F)(F)F)cc3)c-2c/c1=N\C1CCOCC1 [TBI-701, 5-(4-Trifluoromethylphenyl)-3-(4-tetrahydropyranyl)imino-2-(2-methoxy-3-pyridyl)amino-3,5-dihydrophenazine]",0.016 µg/mL
21,COc1ncccc1Nc1cc2nc3ccccc3n(-c3ccc(C(F)(F)F)cc3)c-2c/c1=N\C1CCN(CC(C)C)CC1 [TBI-702],0.016 µg/mL
22,"COc1ncccc1Nc1cc2nc3ccccc3n(-c3ccc(C(F)(F)F)cc3)c-2c/c1=N\C1CCN(C)CC1 [TBI-703, 5-(4-Trifluoromethylphenyl)-3-(N-methyl-4-piperidyl)imino-2-(2-methoxy-3-pyridyl)amino-3,5-dihydrophenazine]",0.02 µg/mL
23,"COc1ncccc1Nc1cc2nc3ccccc3n(-c3ccc(C(F)(F)F)cc3)c-2c/c1=N\CCN1CCOCC1 [TBI-704, 5-(4-Trifluoromethylphenyl)-3-(2-morpholinoethyl)imino-2-(2-methoxy-3-pyridyl)amino-3,5-dihydrophenazine]",0.061 µg/mL
24,"Cc1ncccc1Nc1cc2nc3ccccc3n(-c3ccc(C(F)(F)F)cc3)c-2c/c1=N\C(C)C [TBI-705, 5-(4-Trifluoromethylphenyl)-3-(1-methylethyl)imino-2-(2-methyl-3-pyridyl)amino-3,5-dihydrophenazine]",0.014 µg/mL
25,"COC1CCC(N=c2cc3n(-c4ccc(C(F)(F)F)cc4)c4ccccc4nc-3cc2Nc2cccnc2C)CC1 (centres unmarked) [TBI-706, 5-(4-Trifluoromethylphenyl)-3-(4-methoxycyclohexyl)imino-2-(2-methyl-3-pyridyl)amino-3,5-dihydrophenazine]",0.011 µg/mL
26,"Cc1ncccc1Nc1cc2nc3ccccc3n(-c3ccc(C(F)(F)F)cc3)c-2c/c1=N\C1CCOCC1 [TBI-707, 5-(4-Trifluoromethylphenyl)-3-(4-tetrahydropyranyl)imino-2-(2-methyl-3-pyridyl)amino-3,5-dihydrophenazine]",0.011 µg/mL
